Test [1] is described as follows: Prothrombin time in arteriovenous shunt model. Format: in vivo, Sprague-Dawley male rats. The conditions noted are these: SEQ ID NO:2 33.3 mg/kg i.v. 5 min prior; Rivaroxaban 10 mg/kg p.o. 90 min prior. The procedure: FIG. 2: Anti-coagulant activity of SEQ ID NO:2 in Arteriovenous Shunt model. Male rats were intravenously injected with saline (Vehicle) or SEQ ID NO:2 solution, according to their body weight. Rivaroxaban was orally administered to the positive control group. 5 to 90 minutes after administration, rats were anesthetized with pentobarbital-na (50 mg/kg). The left jugular vein and the right carotid artery of anesthetized rats were connected with two catheters. The thrombus weight formed on the thread was calculated by subtracting the average weight of the rough nylon thread (A). Prothrombin times were measured (B) and Activated partial thromboplastin times (APTT) were analysed (C). Each bar represents the mean±SEM (n=8 for vehicle and rivaroxaban groups, n=3 for SEQ ID NO:2 group), *p<0.05, **p<0.01, ***p<0.001 vs Vehicle.
The animals were assigned to 3 dosing groups according to the body weight (see table 2). Vehicle treated animals were intravenously injected with saline 90 min prior to shunt assay. The positive control treated animals were orally given Rivaroxaban 10 mg/kg at 90 min prior to shunt assay. SEQ ID NO:2 was intravenously injected 5 min prior to shunt assay.

The nature of test [2]: Tail bleeding model (bleeding time). The conditions noted are these: SEQ ID NO:2 5, 20, 40 mg/kg i.v. 5 min before, Rivaroxaban 10 mg/kg PO 1 hour before, Warfarin 0.5 mg/kg IV. The test is classed as in vivo, Sprague-Dawley rats. The procedure: A total of 36 Sprague-Dawley male and female rats were utilized and divided into six groups comprising of 6 animals per group. Animal handling was performed according to guidelines of the National Institute of Health and the Association for Assessment and Accreditation of Laboratory Animal Care. Animals were fed ad libitum a commercial rodent diet (Teklad Certified Global 18% Protein Diet cat #: 2018SC). Animals had free access to autoclaved and acidified drinking water (pH between 2.5 and 3.5) obtained from the municipality supply. Animals were housed under standard laboratory conditions, air conditioned and filtered with adequate fresh air supply. Animals were kept in a climate controlled environment.
SEQ ID NO:2 (Biospring) (100 mg) was dissolved in 5 ml saline to form a stock solution of 20 mg/ml. Vehicle (saline) was provided by Pharmaseed as ready to use for i.v. administration. Rivaroxaban (Bayer, Pharmaseed Ltd) dosing solution was diluted at 10 mg/kg (Group 2M). Warfarin (Ceriliant, Pharmaseed Ltd) was diluted at 0.5 mg/kg (Group 3M). Both Rivaroxaban and Warfarin are clinical standards with anticoagulation activity. To obtain SEQ ID NO:2 dosing solution (2.5 mg/ml) for dose level of 5 mg/kg and dose volume of 2 ml/kg for i.v. injection, 0.375 ml of the above 20 mg/ml stock solution was diluted with 2.625 ml of saline (Group 4M). To obtain SEQ ID NO:2 dosing solution (10 mg/ml) for dose level of 20 mg/kg and dose volume of 2 ml/kg for i.v. injection, 1.5 ml of the above 20 mg/ml stock solution was diluted with 1.5 ml saline (Group 5M). To obtain SEQ ID NO:2 dosing solution (20 mg/ml) for dose level of 40 mg/kg and dose volume of 2 ml/kg for i.v. injection, the above 20 mg/ml stock used (Group 6).
Rats were intravenously injected five minutes before bleeding time assay. […] Three treated groups received SEQ ID NO:2 at dose levels of 5, 20 and 40 mg/kg saline solution. In each gender, control groups received saline Vehicle. A positive control group received Rivaroxaban (10 mg/kg). Rivaroxaban was administered by oral gavage 1 hour before bleeding time assay. A second positive control groups received Warfarin (0.5 mg/kg).
Male and female rats were anaesthetized by intraperitoneal injection of ketamine/xylazine. Bleeding time was monitored as described in Stupnisek et al. (2012), until blood flow stopped for a complete 30-sec interval or till the end of 30 min period. In deeply anaesthetized rats (placed in ventral position) the tail was transected with a surgical scalpel 2 mm from the tip (and submerged into a tube with 40 ml of saline at room temperature in vertical position) and the duration and amount of bleeding was measured to evaluate the hemostatic effect of the agents or saline administration. Following the completion of bleeding time evaluation, all rats were immediately sacrificed by CO2 asphyxiation.
Numerical results were given as means±standard errors. If applicable, statistical analysis was carried out using one-way ANOVA followed by Dunnett's Multiple Comparison post Test. A probability of 5% (p≤0.05) was regarded as significant.

Test [3] in a line: Activated partial thromboplastin time (APTT) in arteriovenous shunt model. Format: in vivo, Sprague-Dawley male rats. As to conditions: SEQ ID NO:2 33.3 mg/kg i.v. 5 min prior; Rivaroxaban 10 mg/kg p.o. 90 min prior.
Test [4] is described as follows: Arteriovenous shunt model, thrombus weight. Format: in vivo, Sprague-Dawley male rats. As to conditions: SEQ ID NO:2 33.3 mg/kg i.v. 5 min prior; Rivaroxaban 10 mg/kg p.o. 90 min prior; 15 min extracorporeal circulation. As for the experimental part: This study was conducted at Shanghai WuXi AppTec Co., Ltd., and in accordance with WuXi IACUC standard animal procedures along with the IACUC guidelines that are in compliance with the Animal Welfare Act, the Guide for the Care and Use of Laboratory Animals, and the Office of Laboratory Animal Welfare (OLAW). Sprague-Dawley male rats with body weight ranging between 150-200 g (Vital River; Bejing, P.R. China) were fed ad libitum a rodent diet. Animals had free access to autoclaved and acidified drinking water. Animals were housed under standard laboratory conditions, air conditioned and filtered with adequate fresh air supply. Animals were kept in a climate controlled environment. Rivaroxaban (10 mg/kg) has been dissolved in water and stored at 4° C. 20 mg SEQ ID NO:2 (Biospring) was dissolved in 3 ml Saline, vortexed for 5 min., sonicated with a water bath ultrasonic for 1 minute to achieve 6.66 mg/ml SEQ ID NO:2. The animals were assigned to 3 dosing groups according to the body weight (see table 2). […] Extracorporeal circulation was maintained for 15 min, the thrombus weight formed on the thread was calculated by subtracting the average weight of the rough nylon thread. Significance of difference between control and treated groups was analyzed by performing analysis of variance (ANOVA) by EXCEL office software.

Structures are written as SMILES.

With `O=C(NC[C@H]1CN(c2ccc(N3CCOCC3=O)cc2)C(=O)O1)c1ccc(Cl)s1` [Rivaroxaban, reference compound], the “Prothrombin times compared to vehicle group” value in test [1] is “significantly prolonged”. Besides, the “group average bleeding time compared to matched vehicle group” value in test [2] (female rats) and in test [2] (male rats) was “increased significantly” in each case. In test [3], the “Activated Partial Thromboplastin Time (APTT) compared to vehicle group” value is “did not show any different”. Besides, the “thrombus weight, less than vehicle group” value in test [4] is 26.5%.
With `CC(=O)CC(c1ccccc1)c1c(O)c2ccccc2oc1=O` (stereo not shown) [Warfarin, reference compound], the “group average bleeding time compared to matched vehicle group” value in test [2] (female rats) and in test [2] (male rats) was “increased significantly” in each case.

The values above are taken from patent US11110115B2, “Nucleic acid molecule with anti-inflammatory and anti-coagulant and organ-protective properties” (APTAHEM AB, priority 2017, dated 2021).
